SMILES | melting point
CCOC(=O)c1ncn2c1CN=C(c1ccccc1)c1cc(Cl)ccc1-2 | 174 to 175 °C
CNC1=Nc2ccc(Br)cc2C(c2ccccc2)=NC1 | 234 to 235 °C
CNC1=Nc2ccc(C#C[Si](C)(C)C)cc2C(c2ccccc2)=NC1 | 210 to 211 °C
C[Si](C)(C)C#Cc1ccc2c(c1)C(c1ccccn1)=NCC(=O)N2 | 242 to 243 °C
CN1C(=O)CN=C(c2ccccn2)c2cc(C#C[Si](C)(C)C)ccc21 | 194 to 195 °C
C#Cc1ccc2c(c1)C(c1ccccn1)=NCC(=O)N2C | 190 to 191 °C
CCOC(=O)c1ncn2c1CN=C(c1ccccn1)c1cc(C#C[Si](C)(C)C)ccc1-2 | 205 to 206 °C
CC(C)(C)OC(=O)c1ncn2c1CN=C(c1ccccc1)c1cc(Br)ccc1-2 | 222 to 223 °C

— US20100261711A1, “SELECTIVE ANTICONVULSANT AGENTS AND THEIR USES” (WiSys Technology Foundation, priority 2009, published 2010)
